Experimental data taken from ChEMBL document CHEMBL4346703, “Structure Overhaul Affords a Potent Purine PI3Kδ Inhibitor with Improved Tolerability” (J Med Chem, 2019).

Assays:
[1] = Lipophilicity, log D of the compound; assay type: physicochemical; details: octanol/water
[2] = Plasma clearance in Wistar Han rat at 0.5 mg/kg, iv or 1 mg/kg, po; assay type: ADME, organism-based
[3] = Protein binding in human plasma; assay type: ADME, cell-free; details: read-out: PPB (converted)
[4] = target: cGMP-dependent 3',5'-cyclic phosphodiesterase (Homo sapiens, UniProt O00408); assay: Inhibition of PDE2 (unknown origin)
Sequence of cGMP-dependent 3',5'-cyclic phosphodiesterase (O00408 whole entry, canonical isoform): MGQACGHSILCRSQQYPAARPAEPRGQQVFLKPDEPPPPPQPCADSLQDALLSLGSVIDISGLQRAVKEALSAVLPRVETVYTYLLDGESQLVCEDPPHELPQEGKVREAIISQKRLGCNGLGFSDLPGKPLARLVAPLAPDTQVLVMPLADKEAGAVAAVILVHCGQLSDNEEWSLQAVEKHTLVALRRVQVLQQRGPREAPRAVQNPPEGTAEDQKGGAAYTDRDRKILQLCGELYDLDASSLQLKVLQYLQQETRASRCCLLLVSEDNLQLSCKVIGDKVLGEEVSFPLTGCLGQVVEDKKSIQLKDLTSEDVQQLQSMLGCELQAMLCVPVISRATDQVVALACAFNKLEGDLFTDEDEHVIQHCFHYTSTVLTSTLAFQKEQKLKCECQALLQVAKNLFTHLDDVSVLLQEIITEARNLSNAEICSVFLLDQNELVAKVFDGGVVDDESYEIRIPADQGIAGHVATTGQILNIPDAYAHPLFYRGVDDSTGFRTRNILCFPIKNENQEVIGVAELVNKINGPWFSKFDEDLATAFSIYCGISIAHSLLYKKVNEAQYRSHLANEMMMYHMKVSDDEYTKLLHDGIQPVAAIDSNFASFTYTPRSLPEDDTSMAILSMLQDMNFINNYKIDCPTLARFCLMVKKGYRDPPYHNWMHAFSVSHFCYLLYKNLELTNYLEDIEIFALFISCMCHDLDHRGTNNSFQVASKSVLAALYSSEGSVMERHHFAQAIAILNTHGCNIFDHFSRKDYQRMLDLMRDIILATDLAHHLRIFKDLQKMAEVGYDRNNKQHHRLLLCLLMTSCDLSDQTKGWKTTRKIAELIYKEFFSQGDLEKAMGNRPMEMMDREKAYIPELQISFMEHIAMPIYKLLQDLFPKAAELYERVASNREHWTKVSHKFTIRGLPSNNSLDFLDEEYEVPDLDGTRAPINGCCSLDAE

[5] = target: T1, Phosphatidylinositol 4,5-bisphosphate 3-kinase catalytic subunit delta isoform (Homo sapiens, UniProt O00329); assay: Inhibition of PI3Kdelta in human whole blood assessed as reduction in anti-CD79b antibody-induced CD69 expression preincubated for 60 mins followed by anti-CD79b antibody stimulation and measured after 3 hrs by FACS analysis; assay type: tissue-based
T1 sequence (O00329 whole entry): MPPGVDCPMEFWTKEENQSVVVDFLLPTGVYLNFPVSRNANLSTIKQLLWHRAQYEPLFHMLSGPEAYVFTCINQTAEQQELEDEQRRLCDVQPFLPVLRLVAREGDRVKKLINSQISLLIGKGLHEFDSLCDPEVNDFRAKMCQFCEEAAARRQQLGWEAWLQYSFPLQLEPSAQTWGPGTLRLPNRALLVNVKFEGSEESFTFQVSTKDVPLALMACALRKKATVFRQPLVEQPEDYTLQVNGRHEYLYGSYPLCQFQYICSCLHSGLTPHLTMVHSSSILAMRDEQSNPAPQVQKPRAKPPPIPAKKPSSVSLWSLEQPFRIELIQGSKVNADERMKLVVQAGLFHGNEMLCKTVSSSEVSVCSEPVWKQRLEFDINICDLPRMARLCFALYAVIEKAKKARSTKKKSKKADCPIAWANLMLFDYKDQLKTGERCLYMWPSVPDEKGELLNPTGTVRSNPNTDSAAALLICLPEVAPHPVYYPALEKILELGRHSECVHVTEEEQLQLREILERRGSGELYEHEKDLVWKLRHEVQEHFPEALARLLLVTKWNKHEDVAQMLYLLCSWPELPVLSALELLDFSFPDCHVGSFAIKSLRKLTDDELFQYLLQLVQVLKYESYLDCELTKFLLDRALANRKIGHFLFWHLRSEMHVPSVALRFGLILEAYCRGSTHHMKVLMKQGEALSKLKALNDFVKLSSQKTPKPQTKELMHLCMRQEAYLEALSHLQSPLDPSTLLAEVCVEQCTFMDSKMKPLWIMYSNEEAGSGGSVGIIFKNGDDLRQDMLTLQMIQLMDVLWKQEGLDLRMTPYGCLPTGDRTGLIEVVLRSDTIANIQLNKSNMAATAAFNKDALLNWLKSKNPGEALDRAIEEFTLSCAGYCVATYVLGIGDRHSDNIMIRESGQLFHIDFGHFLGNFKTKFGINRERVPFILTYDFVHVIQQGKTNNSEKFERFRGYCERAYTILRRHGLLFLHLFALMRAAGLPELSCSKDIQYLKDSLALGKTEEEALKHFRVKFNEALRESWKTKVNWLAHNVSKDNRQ

[6] = target: Phosphodiesterase 3 (Homo sapiens, UniProt Q14432+Q13370); assay: Inhibition of PDE3 (unknown origin); assay type: protein assay
[7] = Protein binding in Beagle dog plasma; assay type: ADME, cell-free, Canis lupus familiaris; details: read-out: PPB (converted)
[8] = target: T2, Nuclear receptor subfamily 1 group I member 2 (Homo sapiens, UniProt O75469); assay: Activation of PXR (unknown origin); assay type: ADME
T2 sequence (O75469 whole entry): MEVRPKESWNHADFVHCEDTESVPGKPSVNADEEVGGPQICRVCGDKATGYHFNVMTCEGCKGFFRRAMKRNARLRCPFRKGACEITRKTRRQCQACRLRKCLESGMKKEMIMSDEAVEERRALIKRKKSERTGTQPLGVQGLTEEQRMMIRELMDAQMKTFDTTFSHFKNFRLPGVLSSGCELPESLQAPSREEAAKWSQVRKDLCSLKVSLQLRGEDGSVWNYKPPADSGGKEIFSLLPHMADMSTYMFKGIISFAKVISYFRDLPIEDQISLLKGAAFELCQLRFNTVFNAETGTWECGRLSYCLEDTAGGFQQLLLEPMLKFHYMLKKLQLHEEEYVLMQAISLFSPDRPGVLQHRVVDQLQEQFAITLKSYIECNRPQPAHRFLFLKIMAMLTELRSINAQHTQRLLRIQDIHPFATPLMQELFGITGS

[9] = Half-life in Beagle dog; assay type: ADME, Canis lupus familiaris; details: in vivo
[10] = Toxicity in rat assessed as increase in heart rate at 750 mg/kg/day; assay type: organism-based; details: in vivo
[11] = Toxicity in Beagle dogs assessed as medial necrosis of the arteries by measuring disruption of tunica media by cellular debris at 30 mg/kg; assay type: organism-based, Canis lupus familiaris; details: dog, in vivo
[12] = Toxicity in rat assessed as increase in blood pressure at 750 mg/kg/day; assay type: organism-based; details: in vivo
[13] = target: PI3-kinase p110-alpha/p85-alpha (Homo sapiens, UniProt P42336); assay: Inhibition of N-terminal His6-tagged recombinant full length human p110alpha/untagged recombinant full length human p85alpha expressed in baculovirus infected Sf21 insect cells using PIP2 as substrate preincubated for 15 mins followed by substrate addition and measured after 1 hr by HTRF assay
Sequence of PI3-kinase p110-alpha/p85-alpha (P27986 whole entry): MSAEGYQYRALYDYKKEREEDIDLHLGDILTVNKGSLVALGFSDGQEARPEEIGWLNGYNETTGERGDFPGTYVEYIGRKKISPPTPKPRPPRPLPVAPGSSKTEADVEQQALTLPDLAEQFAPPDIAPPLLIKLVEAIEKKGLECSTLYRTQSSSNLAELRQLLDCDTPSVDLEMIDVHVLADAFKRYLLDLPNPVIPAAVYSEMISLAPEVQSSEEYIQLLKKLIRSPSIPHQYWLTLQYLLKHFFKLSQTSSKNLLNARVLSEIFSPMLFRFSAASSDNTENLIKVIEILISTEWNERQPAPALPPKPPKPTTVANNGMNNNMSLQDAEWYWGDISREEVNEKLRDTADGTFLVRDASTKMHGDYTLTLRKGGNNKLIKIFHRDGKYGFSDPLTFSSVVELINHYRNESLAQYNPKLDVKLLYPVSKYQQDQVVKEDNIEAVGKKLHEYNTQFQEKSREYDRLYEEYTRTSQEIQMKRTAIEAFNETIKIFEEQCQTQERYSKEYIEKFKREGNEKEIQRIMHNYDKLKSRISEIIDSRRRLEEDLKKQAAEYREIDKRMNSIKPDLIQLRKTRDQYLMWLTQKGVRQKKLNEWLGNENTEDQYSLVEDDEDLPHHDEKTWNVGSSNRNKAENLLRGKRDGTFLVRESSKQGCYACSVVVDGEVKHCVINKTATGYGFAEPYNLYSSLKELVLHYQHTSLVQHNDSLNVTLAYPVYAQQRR
Sequence of PI3-kinase p110-alpha/p85-alpha (P42336 whole entry): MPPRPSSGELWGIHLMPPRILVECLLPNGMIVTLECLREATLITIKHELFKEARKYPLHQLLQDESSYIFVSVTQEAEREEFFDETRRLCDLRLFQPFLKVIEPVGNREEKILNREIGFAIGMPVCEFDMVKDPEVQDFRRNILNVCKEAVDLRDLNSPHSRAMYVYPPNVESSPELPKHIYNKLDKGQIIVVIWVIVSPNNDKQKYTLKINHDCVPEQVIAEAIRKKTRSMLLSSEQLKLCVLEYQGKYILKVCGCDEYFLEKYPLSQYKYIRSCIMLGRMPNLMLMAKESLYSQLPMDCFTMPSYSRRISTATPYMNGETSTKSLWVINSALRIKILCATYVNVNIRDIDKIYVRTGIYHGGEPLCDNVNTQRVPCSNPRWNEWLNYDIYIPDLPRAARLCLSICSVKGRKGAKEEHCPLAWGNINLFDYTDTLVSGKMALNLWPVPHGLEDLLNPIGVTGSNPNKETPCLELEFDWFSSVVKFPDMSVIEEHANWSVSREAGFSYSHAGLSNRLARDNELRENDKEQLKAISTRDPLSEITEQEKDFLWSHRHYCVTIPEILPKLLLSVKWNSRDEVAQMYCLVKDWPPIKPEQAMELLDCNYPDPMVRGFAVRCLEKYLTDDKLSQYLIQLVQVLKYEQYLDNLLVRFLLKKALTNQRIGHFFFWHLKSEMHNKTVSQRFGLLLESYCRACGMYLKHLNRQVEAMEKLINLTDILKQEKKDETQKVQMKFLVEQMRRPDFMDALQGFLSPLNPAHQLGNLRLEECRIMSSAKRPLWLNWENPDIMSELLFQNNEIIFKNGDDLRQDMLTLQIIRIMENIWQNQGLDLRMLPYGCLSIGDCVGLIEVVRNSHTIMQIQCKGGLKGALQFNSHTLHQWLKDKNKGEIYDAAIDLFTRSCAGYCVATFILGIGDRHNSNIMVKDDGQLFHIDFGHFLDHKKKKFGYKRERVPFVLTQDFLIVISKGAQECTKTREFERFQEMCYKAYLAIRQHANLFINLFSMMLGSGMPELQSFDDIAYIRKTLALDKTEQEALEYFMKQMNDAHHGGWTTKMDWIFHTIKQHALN

[14] = Stability in rat microsomes in the presence of NADPH; assay type: ADME, Microsome
[15] = target: Phosphodiesterase 4 (Homo sapiens, UniProt P27815+Q08499+Q07343+Q08493); assay: Inhibition of PDE4 (unknown origin); assay type: protein assay
[16] = Oral bioavailability in Beagle dog; assay type: ADME, organism-based, Canis lupus familiaris; details: in vivo
[17] = fAUC in rat at 750 mg/kg/day; assay type: ADME, organism-based; details: in vivo
[18] = Toxicity in Beagle dogs assessed as medial necrosis of the arteries by measuring disruption of tunica media by fibrin at 30 mg/kg; assay type: organism-based, Canis lupus familiaris; details: dog, in vivo
[19] = Oral bioavailability in Wistar Han rat; assay type: ADME, organism-based; details: in vivo
[20] = Plasma clearance in Beagle dog at 0.25 mg/kg, iv or 0.5 mg/kg, po; assay type: ADME, organism-based, Canis lupus familiaris
[21] = Drug metabolism in dog microsomes assessed as N-dealkylation of pyrazole metabolite; assay type: ADME, Canis lupus familiaris, Microsome
[22] = Unbound volume of distribution in Beagle dog; assay type: ADME, Canis lupus familiaris; details: in vivo
[23] = Inhibition of adenosine transporter in human HeLa cells assessed as reduction in [3H]adenosine uptake preincubated for 30 mins followed by [3H]adenosine addition and measured after 60 mins; assay type: ADME, cell-based
[24] = target: cAMP and cAMP-inhibited cGMP 3',5'-cyclic phosphodiesterase 10A (Homo sapiens, UniProt Q9Y233); assay: Inhibition of PDE10 (unknown origin)
Sequence of cAMP and cAMP-inhibited cGMP 3',5'-cyclic phosphodiesterase 10A (Q9Y233 whole entry): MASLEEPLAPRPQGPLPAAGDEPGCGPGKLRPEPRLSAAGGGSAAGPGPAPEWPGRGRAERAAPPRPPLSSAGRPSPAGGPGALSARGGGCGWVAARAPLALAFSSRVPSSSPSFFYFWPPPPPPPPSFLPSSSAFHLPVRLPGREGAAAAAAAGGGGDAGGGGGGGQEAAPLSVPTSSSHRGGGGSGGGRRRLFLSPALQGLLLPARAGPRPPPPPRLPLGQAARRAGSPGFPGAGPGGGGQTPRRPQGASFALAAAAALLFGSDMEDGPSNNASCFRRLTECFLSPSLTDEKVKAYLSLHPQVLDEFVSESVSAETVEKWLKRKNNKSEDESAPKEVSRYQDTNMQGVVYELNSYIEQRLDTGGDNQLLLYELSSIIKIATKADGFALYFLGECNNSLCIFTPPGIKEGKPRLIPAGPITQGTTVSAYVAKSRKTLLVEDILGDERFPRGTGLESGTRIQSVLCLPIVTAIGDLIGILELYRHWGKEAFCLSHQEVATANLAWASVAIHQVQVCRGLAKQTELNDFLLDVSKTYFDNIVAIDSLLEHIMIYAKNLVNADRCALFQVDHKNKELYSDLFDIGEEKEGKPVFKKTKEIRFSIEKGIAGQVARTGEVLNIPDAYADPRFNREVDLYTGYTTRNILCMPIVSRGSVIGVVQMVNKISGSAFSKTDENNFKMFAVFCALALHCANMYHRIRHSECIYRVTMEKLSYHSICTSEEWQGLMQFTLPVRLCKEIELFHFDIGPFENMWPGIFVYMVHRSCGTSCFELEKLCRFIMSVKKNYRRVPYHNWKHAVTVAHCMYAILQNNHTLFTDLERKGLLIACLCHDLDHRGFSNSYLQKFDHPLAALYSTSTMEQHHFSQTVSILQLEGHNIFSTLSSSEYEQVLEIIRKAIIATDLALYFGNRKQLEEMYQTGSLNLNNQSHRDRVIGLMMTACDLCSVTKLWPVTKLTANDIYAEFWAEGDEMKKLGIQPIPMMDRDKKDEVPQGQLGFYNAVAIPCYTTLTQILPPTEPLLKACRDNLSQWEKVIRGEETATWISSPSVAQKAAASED

[25] = target: PI3-kinase p110-delta/p85-alpha (Homo sapiens, UniProt O00329); assay: Inhibition of N-terminal His6-tagged recombinant full length human p110delta/untagged recombinant full length human p85alpha expressed in baculovirus infected Sf21 insect cells using PIP2 as substrate preincubated for 15 mins followed by substrate addition and measured after 1 hr by HTRF assay
Sequence of PI3-kinase p110-delta/p85-alpha (P27986 whole entry, one chain of several): as the sequence (P27986 whole entry) above

[26] = Unbound volume of distribution in Wistar Han rat; assay type: ADME; details: in vivo
[27] = Half-life in Wistar Han rat; assay type: ADME; details: in vivo
[28] = Intrinsic clearance in Wistar Han rat at 0.5 mg/kg, iv or 1 mg/kg, po; assay type: ADME, organism-based; details: in vivo
[29] = Protein binding in Wistar Han rat plasma; assay type: ADME, cell-free; details: read-out: PPB (converted)
[30] = Drug metabolism in dog microsomes assessed as oxidation of imidazopyridinone metabolite; assay type: ADME, Canis lupus familiaris, Microsome
[31] = target: T1, Phosphatidylinositol 4,5-bisphosphate 3-kinase catalytic subunit delta isoform; assay: Inhibition of PI3Kdelta in human whole blood assessed as reduction in antihuman IgE antibody-stimulated CD63 expression preincubated for 30 mins followed by antihuman IgE antibody stimulation and measured after 20 mins by FACS analysis; assay type: tissue-based
[32] = target: Phosphodiesterase 1 (Homo sapiens, UniProt P54750+Q01064+Q14123); assay: Inhibition of PDE1 (unknown origin); assay type: protein assay
[33] = fAUC in Beagle dog at 30 mg/kg; assay type: ADME, organism-based, Canis lupus familiaris; details: in vivo
[34] = fCmax in rat at 750 mg/kg/day; assay type: ADME, organism-based; details: in vivo
[35] = target: T1, Phosphatidylinositol 4,5-bisphosphate 3-kinase catalytic subunit delta isoform; assay: Inhibition of PI3Kdelta in human Ramos cells assessed as reduction in anti-IgM-antibody-induced phosphorylation of AKT at Ser473 residue preincubated for 20 mins followed by anti-IgM antibody stimulation and measured after 30 mins by alphascreen assay; assay type: cell-based
[36] = Volume of distribution in Wistar Han rat; assay type: ADME; details: in vivo
[37] = Stability in human microsomes in the presence of NADPH; assay type: ADME, Microsome
[38] = Toxicity in Beagle dogs assessed as medial necrosis of the arteries by measuring disruption of tunica media by hemorrhage at 30 mg/kg; assay type: organism-based, Canis lupus familiaris; details: dog, in vivo
[39] = Volume of distribution in Beagle dog; assay type: ADME, Canis lupus familiaris; details: in vivo
[40] = fCmax in Beagle dog at 30 mg/kg; assay type: ADME, organism-based, Canis lupus familiaris; details: in vivo

For CCn1ncc(-c2nc3c(N4CCC(n5c(=O)[nH]c6ncccc65)CC4)ncnc3n2C)c1C, the logD [1] was 1.4, the clearance [2] was 5.8 mL/min/kg and the fraction unbound [3] was 0.21. The IC50 [4] was 4.9 µM, the IC50 [5] was 810 nM and the IC50 [6] was 1030 nM. The fraction unbound [7] was 0.05, the Activity [8] was “Not Active” and the half-life [9] was 66 min. For the same compound, the Activity [10] was 100 bpm, the Activity [11] was “Non-Toxic” and the Activity [12] was 20 mmHg. The IC50 [13] was 450 nM, the Stability [14] was “Stable” and the IC50 [15] was 1190 nM. The bioavailability [16] was 61%, the fAUC [17] was 123 µM·h and the Activity [18] was “Non-Toxic”. The bioavailability [19] was 76%, the clearance [20] was 46 mL/min/kg and the Drug metabolism [21] was “Metabolite_Detected”. The Vdu [22] was 90 L/kg, the IC50 [23] was 72 nM and the IC50 [24] was 4.01 µM. For the same compound, the IC50 [25] was 6.3 nM, the Vdu [26] was 4 L/kg and the half-life [27] was 72 min. The CL [28] was 60 mL/min/kg, the fraction unbound [29] was 0.1 and the Drug metabolism [30] was “Metabolite_Detected”. The IC50 [31] was 790 nM, the IC50 [32] was 2350 nM and the fAUC [33] was 4.4 µM·h. The fCmax [34] was 8 µM, the IC50 [35] was 63 nM and the Vd [36] was 0.4 L/kg. The Stability [37] was “Stable”, the Activity [38] was “Non-Toxic” and the Vd [39] was 4.6 L/kg. It also gave a fCmax [40] of 0.33 µM.
